{"source": "paper PMC8333425", "about": "“Discovery of a dual Ras and ARF6 inhibitor from a GPCR endocytosis screen” (Nature Communications, 2021)", "experiment_in_all_cases": "KINOMEscan kinase binding assay", "key": {"[1]": {"biological_target": "T1, 384 kinases from the human genome (Homo sapiens, UniProt Q2M2I8)", "T1 construct": "purchased Eurofin/DiscoverX", "T1 sequence (Q2M2I8 whole entry)": "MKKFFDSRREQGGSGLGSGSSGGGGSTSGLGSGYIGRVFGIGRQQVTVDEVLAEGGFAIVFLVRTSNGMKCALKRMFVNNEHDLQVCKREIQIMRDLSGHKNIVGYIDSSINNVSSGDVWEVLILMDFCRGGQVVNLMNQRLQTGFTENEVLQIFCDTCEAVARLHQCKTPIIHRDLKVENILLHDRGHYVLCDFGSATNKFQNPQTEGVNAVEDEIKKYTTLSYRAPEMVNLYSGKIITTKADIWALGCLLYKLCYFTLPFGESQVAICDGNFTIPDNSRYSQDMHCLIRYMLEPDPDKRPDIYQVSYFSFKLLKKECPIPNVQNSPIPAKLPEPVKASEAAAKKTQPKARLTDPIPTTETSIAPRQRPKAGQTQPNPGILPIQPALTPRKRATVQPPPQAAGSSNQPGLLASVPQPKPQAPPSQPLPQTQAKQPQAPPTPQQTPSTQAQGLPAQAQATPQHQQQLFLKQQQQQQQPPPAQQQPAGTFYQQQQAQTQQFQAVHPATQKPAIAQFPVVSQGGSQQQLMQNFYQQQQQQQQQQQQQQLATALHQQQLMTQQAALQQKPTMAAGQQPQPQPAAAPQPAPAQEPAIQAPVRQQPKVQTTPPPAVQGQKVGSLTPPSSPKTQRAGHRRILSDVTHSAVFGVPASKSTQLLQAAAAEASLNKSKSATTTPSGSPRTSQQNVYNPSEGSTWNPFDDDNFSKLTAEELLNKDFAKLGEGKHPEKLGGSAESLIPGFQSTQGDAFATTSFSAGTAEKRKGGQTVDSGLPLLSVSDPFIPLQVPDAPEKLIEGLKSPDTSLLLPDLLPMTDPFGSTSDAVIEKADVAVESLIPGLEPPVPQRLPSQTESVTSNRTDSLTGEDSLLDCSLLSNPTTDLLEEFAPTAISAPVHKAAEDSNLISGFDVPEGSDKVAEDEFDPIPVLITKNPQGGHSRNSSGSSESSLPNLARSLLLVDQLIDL", "procedure,_shortened": "(§1)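 Competition binding (KINOMEscan) across 384 human kinases with compound at 10 µM. Ligand binding was expressed relative to DMSO (100%) as the average of duplicates from one experiment. S(10) selectivity score was derived.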"}, "[2]": {"biological_target": "T2, 384 kinases from the human genome (Homo sapiens, UniProt Q99759)", "T2 construct": "purchased Eurofin/DiscoverX", "T2 sequence (Q99759 whole entry)": "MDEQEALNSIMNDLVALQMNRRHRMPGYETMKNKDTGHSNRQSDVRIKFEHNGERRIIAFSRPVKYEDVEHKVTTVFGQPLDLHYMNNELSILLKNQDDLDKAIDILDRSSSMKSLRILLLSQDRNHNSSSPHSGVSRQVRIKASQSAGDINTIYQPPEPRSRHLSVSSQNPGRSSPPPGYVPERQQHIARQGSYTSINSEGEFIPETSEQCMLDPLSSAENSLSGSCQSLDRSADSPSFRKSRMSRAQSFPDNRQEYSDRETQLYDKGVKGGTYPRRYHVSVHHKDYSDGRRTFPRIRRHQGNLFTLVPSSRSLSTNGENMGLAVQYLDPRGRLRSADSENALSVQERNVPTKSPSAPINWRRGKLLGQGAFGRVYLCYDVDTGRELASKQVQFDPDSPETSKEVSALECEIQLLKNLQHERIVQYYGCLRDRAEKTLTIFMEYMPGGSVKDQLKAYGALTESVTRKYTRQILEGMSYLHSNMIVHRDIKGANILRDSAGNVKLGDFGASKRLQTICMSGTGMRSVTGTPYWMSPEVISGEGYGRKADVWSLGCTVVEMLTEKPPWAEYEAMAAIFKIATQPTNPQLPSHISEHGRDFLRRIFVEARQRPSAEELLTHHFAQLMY", "conditions": "kinase MAP3K3 (Entrez MAP3K3)", "procedure,_shortened": "as §1"}, "[3]": {"biological_target": "T3, 384 kinases from the human genome (Homo sapiens, UniProt Q6ZWH5)", "T3 construct": "purchased Eurofin/DiscoverX", "conditions": "kinase NEK10 (Entrez NEK10)", "procedure,_shortened": "as §1"}, "[4]": {"biological_target": "T4, 384 kinases from the human genome (Homo sapiens, UniProt Q9Y243)", "T4 construct": "purchased Eurofin/DiscoverX", "conditions": "kinase AKT3 (Entrez AKT3)", "procedure,_shortened": "as §1"}, "[5]": {"biological_target": "T5, 384 kinases from the human genome (Homo sapiens, UniProt Q96RR4)", "T5 construct": "purchased Eurofin/DiscoverX", "conditions": "kinase CAMKK2 (Entrez CAMKK2)", "procedure,_shortened": "as §1"}, "[6]": {"biological_target": "T6, 384 kinases from the human genome (Homo sapiens, UniProt Q9H3Y6)", "T6 construct": "purchased Eurofin/DiscoverX", "conditions": "kinase SRMS (Entrez SRMS)", "procedure,_shortened": "as §1"}, "[7]": {"biological_target": "T7, 384 kinases from the human genome (Homo sapiens, UniProt Q13188)", "T7 construct": "purchased Eurofin/DiscoverX", "conditions": "kinase MST2 (Entrez STK3)", "procedure,_shortened": "as §1"}, "[8]": {"biological_target": "T8, 384 kinases from the human genome (Homo sapiens, UniProt Q9H2K8)", "T8 construct": "purchased Eurofin/DiscoverX", "T8 sequence (Q9H2K8 whole entry)": "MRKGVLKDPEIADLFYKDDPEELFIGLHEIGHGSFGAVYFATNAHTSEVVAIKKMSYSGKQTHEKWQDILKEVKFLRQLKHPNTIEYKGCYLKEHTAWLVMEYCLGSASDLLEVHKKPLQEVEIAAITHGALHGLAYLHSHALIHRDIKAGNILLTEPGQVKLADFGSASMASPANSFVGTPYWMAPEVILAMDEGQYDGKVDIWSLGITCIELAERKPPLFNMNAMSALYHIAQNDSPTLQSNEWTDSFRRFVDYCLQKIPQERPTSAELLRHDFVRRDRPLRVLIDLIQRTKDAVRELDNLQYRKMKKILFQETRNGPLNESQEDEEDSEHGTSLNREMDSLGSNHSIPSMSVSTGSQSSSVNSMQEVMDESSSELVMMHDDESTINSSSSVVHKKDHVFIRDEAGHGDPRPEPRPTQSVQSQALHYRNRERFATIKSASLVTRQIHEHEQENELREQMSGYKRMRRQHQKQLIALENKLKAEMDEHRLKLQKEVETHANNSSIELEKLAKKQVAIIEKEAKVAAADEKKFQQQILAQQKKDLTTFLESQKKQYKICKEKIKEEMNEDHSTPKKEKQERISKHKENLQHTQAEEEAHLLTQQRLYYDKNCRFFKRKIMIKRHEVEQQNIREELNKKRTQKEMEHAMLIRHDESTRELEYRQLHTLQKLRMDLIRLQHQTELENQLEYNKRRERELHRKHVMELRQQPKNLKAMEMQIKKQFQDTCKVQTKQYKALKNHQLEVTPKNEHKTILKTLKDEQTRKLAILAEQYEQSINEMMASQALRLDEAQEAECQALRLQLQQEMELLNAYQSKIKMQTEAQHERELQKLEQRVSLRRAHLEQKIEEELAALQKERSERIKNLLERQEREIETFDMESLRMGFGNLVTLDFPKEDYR", "conditions": "kinase TAOK3 (Entrez TAOK3)", "procedure,_shortened": "as §1"}, "[9]": {"biological_target": "T9, 384 kinases from the human genome (Homo sapiens, UniProt P42685)", "T9 construct": "purchased Eurofin/DiscoverX", "conditions": "kinase FRK (Entrez FRK)", "procedure,_shortened": "as §1"}, "[10]": {"biological_target": "T10, 384 kinases from the human genome (Homo sapiens, UniProt Q7KZI7)", "T10 construct": "purchased Eurofin/DiscoverX", "conditions": "kinase MARK2 (Entrez MARK2)", "procedure,_shortened": "as §1"}, "[11]": {"biological_target": "T11, 384 kinases from the human genome (Homo sapiens, UniProt Q7L7X3)", "T11 construct": "purchased Eurofin/DiscoverX", "conditions": "kinase TAOK1 (Entrez TAOK1)", "procedure,_shortened": "as §1"}, "[12]": {"biological_target": "T12, 384 kinases from the human genome (Homo sapiens, UniProt Q8WU08)", "T12 construct": "purchased Eurofin/DiscoverX", "T12 sequence (Q8WU08 whole entry)": "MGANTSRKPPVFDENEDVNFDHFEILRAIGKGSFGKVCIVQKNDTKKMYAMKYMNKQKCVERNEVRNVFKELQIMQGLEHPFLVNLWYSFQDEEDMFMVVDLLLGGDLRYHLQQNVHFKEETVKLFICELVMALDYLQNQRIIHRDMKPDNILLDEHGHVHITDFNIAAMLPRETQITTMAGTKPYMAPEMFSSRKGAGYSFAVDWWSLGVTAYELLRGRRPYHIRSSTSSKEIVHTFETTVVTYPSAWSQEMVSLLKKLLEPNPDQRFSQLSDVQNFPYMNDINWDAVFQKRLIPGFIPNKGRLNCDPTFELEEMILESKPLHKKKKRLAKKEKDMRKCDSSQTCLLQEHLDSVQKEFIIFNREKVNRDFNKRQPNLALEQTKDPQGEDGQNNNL", "conditions": "kinase YANK1 (Entrez STK32A)", "procedure,_shortened": "as §1"}, "[13]": {"biological_target": "T13, 384 kinases from the human genome (Homo sapiens, UniProt P49841)", "T13 construct": "purchased Eurofin/DiscoverX", "T13 sequence (P49841 whole entry)": "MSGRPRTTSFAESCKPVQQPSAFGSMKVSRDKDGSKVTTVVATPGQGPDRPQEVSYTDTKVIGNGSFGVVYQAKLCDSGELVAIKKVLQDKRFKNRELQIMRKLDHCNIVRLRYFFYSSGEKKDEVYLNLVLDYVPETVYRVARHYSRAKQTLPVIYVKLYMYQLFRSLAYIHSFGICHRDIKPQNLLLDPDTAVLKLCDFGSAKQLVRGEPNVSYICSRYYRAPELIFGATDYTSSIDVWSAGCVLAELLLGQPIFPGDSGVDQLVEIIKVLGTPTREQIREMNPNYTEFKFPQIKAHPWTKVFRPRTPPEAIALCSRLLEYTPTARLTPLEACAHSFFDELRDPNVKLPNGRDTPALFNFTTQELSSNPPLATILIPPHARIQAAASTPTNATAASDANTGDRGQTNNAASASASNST", "conditions": "kinase GSK3B (Entrez GSK3B)", "procedure,_shortened": "as §1"}, "[14]": {"biological_target": "T14, 384 kinases from the human genome (Homo sapiens, UniProt Q14680)", "T14 construct": "purchased Eurofin/DiscoverX", "conditions": "kinase MELK (Entrez MELK)", "procedure,_shortened": "as §1"}, "[15]": {"biological_target": "T15, 384 kinases from the human genome (Homo sapiens, UniProt Q13557)", "T15 construct": "purchased Eurofin/DiscoverX", "conditions": "kinase CAMK2D (Entrez CAMK2D)", "procedure,_shortened": "as §1"}, "[16]": {"biological_target": "T16, 384 kinases from the human genome (Homo sapiens, UniProt Q8IU85)", "T16 construct": "purchased Eurofin/DiscoverX", "T16 sequence (Q8IU85 whole entry)": "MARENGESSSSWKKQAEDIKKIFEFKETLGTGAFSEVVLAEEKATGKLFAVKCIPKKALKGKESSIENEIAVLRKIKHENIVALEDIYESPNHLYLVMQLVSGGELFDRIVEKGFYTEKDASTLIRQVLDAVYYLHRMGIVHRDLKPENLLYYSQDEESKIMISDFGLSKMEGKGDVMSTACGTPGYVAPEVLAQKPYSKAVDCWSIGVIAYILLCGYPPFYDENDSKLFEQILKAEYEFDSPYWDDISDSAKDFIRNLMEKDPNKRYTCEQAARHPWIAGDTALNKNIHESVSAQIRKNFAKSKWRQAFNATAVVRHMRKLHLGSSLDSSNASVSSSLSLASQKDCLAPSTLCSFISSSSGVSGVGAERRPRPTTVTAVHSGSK", "conditions": "kinase CAMK1D (Entrez CAMK1D)", "procedure,_shortened": "as §1"}, "[17]": {"biological_target": "T17, 384 kinases from the human genome (Homo sapiens, UniProt Q9H0K1)", "T17 construct": "purchased Eurofin/DiscoverX", "conditions": "kinase SIK2 (Entrez SIK2)", "procedure,_shortened": "as §1"}, "[18]": {"biological_target": "T18, 384 kinases from the human genome (Homo sapiens, UniProt Q13627)", "T18 construct": "purchased Eurofin/DiscoverX", "conditions": "kinase DYRK1A (Entrez DYRK1A)", "procedure,_shortened": "as §1"}, "[19]": {"biological_target": "T19, 384 kinases from the human genome (Homo sapiens, UniProt Q9Y6R4)", "T19 construct": "purchased Eurofin/DiscoverX", "conditions": "kinase MAP3K4 (Entrez MAP3K4)", "procedure,_shortened": "as §1"}, "[20]": {"biological_target": "T20, 384 kinases from the human genome (Homo sapiens, UniProt Q8NI60)", "T20 construct": "purchased Eurofin/DiscoverX", "conditions": "kinase ADCK3 (Entrez CABC1)", "procedure,_shortened": "as §1"}, "[21]": {"biological_target": "T21, 384 kinases from the human genome (Homo sapiens, UniProt Q15375)", "T21 construct": "purchased Eurofin/DiscoverX", "conditions": "kinase EPHA7 (Entrez EPHA7)", "procedure,_shortened": "as §1"}, "[22]": {"biological_target": "T22, 384 kinases from the human genome (Homo sapiens, UniProt Q9Y2K2)", "T22 construct": "purchased Eurofin/DiscoverX", "conditions": "kinase QSK (Entrez KIAA0999)", "procedure,_shortened": "as §1"}, "[23]": {"biological_target": "T23, 384 kinases from the human genome (Homo sapiens, UniProt P48736)", "T23 construct": "purchased Eurofin/DiscoverX", "T23 sequence (P48736 whole entry)": "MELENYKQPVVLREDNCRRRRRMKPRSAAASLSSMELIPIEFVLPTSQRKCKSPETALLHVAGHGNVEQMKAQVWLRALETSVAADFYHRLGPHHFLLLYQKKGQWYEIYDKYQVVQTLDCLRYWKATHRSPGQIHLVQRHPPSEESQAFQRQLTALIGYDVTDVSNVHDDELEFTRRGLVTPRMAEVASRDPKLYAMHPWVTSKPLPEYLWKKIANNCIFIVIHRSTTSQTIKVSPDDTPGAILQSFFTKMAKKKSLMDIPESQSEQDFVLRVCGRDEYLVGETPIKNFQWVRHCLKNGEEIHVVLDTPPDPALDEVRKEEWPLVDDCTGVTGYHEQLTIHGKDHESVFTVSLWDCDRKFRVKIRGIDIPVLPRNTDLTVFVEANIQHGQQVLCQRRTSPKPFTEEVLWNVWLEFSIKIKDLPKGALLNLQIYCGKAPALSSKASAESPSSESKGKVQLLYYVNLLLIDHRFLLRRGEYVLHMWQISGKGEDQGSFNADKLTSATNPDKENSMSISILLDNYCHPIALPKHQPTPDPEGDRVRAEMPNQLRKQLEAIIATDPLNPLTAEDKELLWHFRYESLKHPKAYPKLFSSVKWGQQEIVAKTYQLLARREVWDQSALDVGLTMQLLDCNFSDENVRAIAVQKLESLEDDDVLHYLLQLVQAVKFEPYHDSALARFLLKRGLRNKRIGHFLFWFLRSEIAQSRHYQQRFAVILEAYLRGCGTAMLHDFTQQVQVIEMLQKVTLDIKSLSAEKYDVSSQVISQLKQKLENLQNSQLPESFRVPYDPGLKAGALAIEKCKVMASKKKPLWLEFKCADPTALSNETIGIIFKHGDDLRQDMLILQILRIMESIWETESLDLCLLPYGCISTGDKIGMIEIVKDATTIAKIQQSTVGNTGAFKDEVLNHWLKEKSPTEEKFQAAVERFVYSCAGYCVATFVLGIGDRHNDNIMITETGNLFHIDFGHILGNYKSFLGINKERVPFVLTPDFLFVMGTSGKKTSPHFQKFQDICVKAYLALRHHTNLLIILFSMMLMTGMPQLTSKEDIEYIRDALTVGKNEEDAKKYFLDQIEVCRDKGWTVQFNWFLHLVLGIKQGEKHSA", "conditions": "kinase PIK3CG (Entrez PIK3CG)", "procedure,_shortened": "as §1"}, "[24]": {"biological_target": "T24, 384 kinases from the human genome (Homo sapiens, UniProt O43293)", "T24 construct": "purchased Eurofin/DiscoverX", "conditions": "kinase DAPK3 (Entrez DAPK3)", "procedure,_shortened": "as §1"}, "[25]": {"biological_target": "T25, 384 kinases from the human genome (Homo sapiens, UniProt Q13233)", "T25 construct": "purchased Eurofin/DiscoverX", "conditions": "kinase MAP3K1 (Entrez MAP3K1)", "procedure,_shortened": "as §1"}, "[26]": {"biological_target": "T26, 384 kinases from the human genome (Homo sapiens, UniProt O00506)", "T26 construct": "purchased Eurofin/DiscoverX", "conditions": "kinase YSK1 (Entrez STK25)", "procedure,_shortened": "as §1"}}, "data": [{"smiles": "CC(C)C(=O)N1CCN(c2ccc(NC(=O)c3cc4ccccc4o3)cc2Cl)CC1", "note": "[Compound 21]", "values": [{"measurement": "binding to AAK1", "setting": "[1]; 10 µM of 21", "value": "failed to bind"}, {"measurement": "Percent Control", "setting": "[1]; kinase AAK1 (Entrez AAK1)", "value": 100, "unit": "%"}, {"measurement": "Percent Control", "setting": "[2]", "value": 75, "unit": "%"}, {"measurement": "Percent Control", "setting": "[3]", "value": 95, "unit": "%"}, {"measurement": "Percent Control", "setting": "[4]", "value": 100, "unit": "%"}, {"measurement": "Percent Control", "setting": "[5]", "value": 100, "unit": "%"}, {"measurement": "Percent Control", "setting": "[6]", "value": 100, "unit": "%"}, {"measurement": "Percent Control", "setting": "[7]", "value": 95, "unit": "%"}, {"measurement": "Percent Control", "setting": "[8]", "value": 100, "unit": "%"}, {"measurement": "Percent Control", "setting": "[9]", "value": 79, "unit": "%"}, {"measurement": "Percent Control", "setting": "[10]", "value": 80, "unit": "%"}, {"measurement": "Percent Control", "setting": "[11]", "value": 100, "unit": "%"}, {"measurement": "Percent Control", "setting": "[12]", "value": 81, "unit": "%"}, {"measurement": "Percent Control", "setting": "[13]", "value": 99, "unit": "%"}, {"measurement": "Percent Control", "setting": "[14]", "value": 29, "unit": "%"}, {"measurement": "Percent Control", "setting": "[15]", "value": 92, "unit": "%"}, {"measurement": "Percent Control", "setting": "[16]", "value": 94, "unit": "%"}, {"measurement": "Percent Control", "setting": "[17]", "value": 77, "unit": "%"}, {"measurement": "Percent Control", "setting": "[18]", "value": 98, "unit": "%"}, {"measurement": "Percent Control", "setting": "[19]", "value": 73, "unit": "%"}, {"measurement": "Percent Control", "setting": "[20]", "value": 64, "unit": "%"}, {"measurement": "Percent Control", "setting": "[21]", "value": 90, "unit": "%"}, {"measurement": "Percent Control", "setting": "[22]", "value": 100, "unit": "%"}, {"measurement": "Percent Control", "setting": "[23]", "value": 100, "unit": "%"}, {"measurement": "Percent Control", "setting": "[24]", "value": 100, "unit": "%"}, {"measurement": "Percent Control", "setting": "[25]", "value": 92, "unit": "%"}, {"measurement": "Percent Control", "setting": "[26]", "value": 100, "unit": "%"}]}]}
